Reference: BigSolDB 2.1

CC1(C)O[C@H]2CC(=O)OC[C@]23[C@H]2CC[C@@]4(C)[C@H](c5ccoc5)OC(=O)[C@H]5O[C@]54[C@]2(C)C(=O)C[C@@H]13
solubility (mole fraction)
Conditions	283.2 K	288.2 K	293.2 K	298.2 K	303.2 K	308.2 K	313.2 K	318.2 K	323.2 K
in THF	0.00242	0.00257	0.0028	0.00309	0.00327	0.0035	0.00408	0.00458	0.00486
in acetonitrile	0.00272	0.00314	0.00349	0.00385	0.00454	0.00523	0.00628	0.00739	0.00857
in chloroform	0.00425	0.00433	0.00447	0.00458	0.00479	0.00512	0.00531	0.0057	0.00599
in ethanol	2.65e-05	2.93e-05	3.05e-05	3.53e-05	4.27e-05	5.48e-05	6.71e-05	8.49e-05	0.000101
in ethyl acetate	0.000746	0.000761	0.000801	0.00085	0.00094	0.000979	0.00101	0.00119	0.00128
in isopropanol	1.08e-05	1.25e-05	1.56e-05	1.79e-05	1.87e-05	2.25e-05	3.03e-05	3.47e-05	4.52e-05
in n-butanol	1.53e-05	1.94e-05	2.01e-05	2.64e-05	2.91e-05	3.54e-05	4.23e-05	5.62e-05	7.25e-05
in n-butyl acetate	0.000323	0.000349	0.000375	0.000413	0.000484	0.00053	0.000616	0.000646	0.00068
